target: Cyclin-dependent kinase 9 (Homo sapiens, UniProt P50750); test: Fluorescent Polarization Assay: The activity of the compounds described in the present invention can be determined by measuring the phosphorylation of a fluorescently-labeled peptide by human CDK9/CyclinT kinase complex by fluorescent polarization using a commercially available IMAP Screening Express Assay Kit (Molecular devices).Test compounds were diluted in 100% DMSO to 5 mM stock concentration, then further dilutions were made in H2O or 100% DMSO to desirable concentrations. Each reaction consisted of 5 nM enzyme: CDK9/CyclinT (Proqinase cat#0371-0345-1), 400 nM TAMRA-Rbtide (synthetic 15-mer peptide derived from human retinoblastoma tumor suppressor protein labeled with TAMRA dye, Genecust Europe), 12 μM ATP (=Kmapp, Sigma-Aldrich) and kinase buffer: 20 mM MOPS pH 7 (Sigma-Aldrich), 1 mM DTT (Sigma-Aldrich), 10 mM MgCl2 (Sigma-Aldrich), 0.01% Tween 20 (Sigma-Aldrich).For each reaction, 4 or 6 μl containing TAMRA-Rbtide, ATP and kianse buffer were combined with 2 μl diluted compound in H2O or 0.028 μl compound in 100% DMSO. The kinase reaction was started by the addition of 2 μl diluted enzyme.
Sequence (P50750 whole entry): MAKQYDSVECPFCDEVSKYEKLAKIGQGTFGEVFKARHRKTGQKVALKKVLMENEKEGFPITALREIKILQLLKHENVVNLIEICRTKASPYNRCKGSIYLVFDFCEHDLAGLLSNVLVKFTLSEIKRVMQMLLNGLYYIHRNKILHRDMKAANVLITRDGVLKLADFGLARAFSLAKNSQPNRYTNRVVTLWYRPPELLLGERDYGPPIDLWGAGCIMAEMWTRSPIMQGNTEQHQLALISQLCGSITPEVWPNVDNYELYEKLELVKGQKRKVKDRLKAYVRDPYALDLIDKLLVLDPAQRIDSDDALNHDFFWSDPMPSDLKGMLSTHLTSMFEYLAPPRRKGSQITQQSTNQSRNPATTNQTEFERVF

IC50 | SMILES
< 10 µM | COc1ccc(Nc2cc(-c3ccccc3OCc3ccccc3)ncn2)cc1[N+](=O)[O-]
< 0.1 µM | COc1ccc(Nc2cc(-c3ccccc3OC)ncn2)cc1NS(C)(=O)=O
> 10 µM | COc1cccc(-c2cc(Nc3ccc(OC)c([N+](=O)[O-])c3)ncn2)c1

SMILES | IC50
COc1ccccc1-c1cc(Nc2ccc(N3CCN(C)CC3)c(CO)c2)ncn1 | < 0.1 µM
